From patent US10357493B2, “Metalloenzyme inhibitor compounds” (Selenity Therapeutics (Bermuda), Ltd., priority 2017, dated 2019)

Legend:
HDAC1 = HDAC1 (Homo sapiens (Human), UniProt Q13547); experiment: HDAC1 enzymatic assay; assay type: biochemical; settings: read-out: Human HDAC1 IC50
Description: (§1) All enzymatic reactions were conducted in duplicate at room temperature for 17 hours in a 50 μl mixture containing HDAC assay buffer (50 mM Tris-HCl, pH 7.4, 137 mM NaCl, 2.7 mM KCl, 0.05% Tween 20, 5 μg BSA), an HDAC substrate, an HDAC enzyme, and a test compound. Compound dilution was prepared ten-fold higher than the final concentration of the compounds with 10% DMSO in HDAC assay buffer and 5 μl of the dilution was added to a 50 μl reaction so that the final concentration of DMSO is 1% in all of reactions. After enzymatic reactions, 50 μl of HDAC Developer was added to each well and the plate was incubated at room temperature for an additional 20 minutes. Fluorescence intensity was measured at an excitation of 360 nm and an emission of 460 nm using a Tecan Infinite M1000 or Biotek Synergy microplate reader.
(§2) The fluorescent intensity data were analyzed using the computer software, Graphpad Prism. In the absence of the compound, the fluorescent intensity (Ft) in each data set was defined as 100% activity. In the absence of HDAC, the fluorescent intensity (Fb) in each data set was defined as 0% activity. The percent activity in the presence of each compound was calculated according to the following equation: % activity=(F−Fb)/(Ft−Fb), where F=the fluorescent intensity in the presence of the compound.
(§3) The values of % activity versus a series of compound concentrations were then plotted using non-linear regression analysis of Sigmoidal dose-response curve generated with the equation Y=B+(T−B)/1+10((Log EC50−X)×Hill Slope), where Y=percent activity, B=minimum percent activity, T=maximum percent activity, X=logarithm of compound and Hill Slope=slope factor or Hill coefficient. The IC50 value was determined by the concentration causing a half-maximal percent activity.
(§4) HDAC1 enzymatic assays contained 0.5 ng HDAC1 and 10 uM of HDAC substrate. HDAC2 enzymatic assays contained 0.5 ng HDAC2 and 10 uM of HDAC substrate. HDAC3 enzymatic assays contained 0.4 ng HDAC3/NCOR2 and 10 uM of HDAC substrate. HDAC4 enzymatic assays contained 0.02 ng HDAC4 and 2 uM of HDAC substrate. HDAC5 enzymatic assays contained 0.5 ng HDAC5 and 2 uM of HDAC substrate. HDAC6 enzymatic assays contained 2 ng HDAC6 and 10 uM of HDAC substrate. HDAC7 enzymatic assays contained 0.05 ng HDAC7 and 2 uM of HDAC substrate. HDAC8 enzymatic assays contained 5 ng HDAC8 and 2 uM of HDAC substrate. HDAC9 enzymatic assays contained 1 ng HDAC9 and 2 uM of HDAC substrate. HDAC10 enzymatic assays contained 75 ng HDAC10 and 10 uM of HDAC substrate. HDAC11 enzymatic assays contained 5 ng HDAC11 and 2 uM of HDAC substrate.

HDAC6 = HDAC6 (Homo sapiens (Human), UniProt Q9UBN7); experiment: HDAC6 enzymatic assay; assay type: biochemical; settings: read-out: Human HDAC6 IC50
Description: as §1, §2, §3, §4

HDAC1, sequence (Q13547 whole entry): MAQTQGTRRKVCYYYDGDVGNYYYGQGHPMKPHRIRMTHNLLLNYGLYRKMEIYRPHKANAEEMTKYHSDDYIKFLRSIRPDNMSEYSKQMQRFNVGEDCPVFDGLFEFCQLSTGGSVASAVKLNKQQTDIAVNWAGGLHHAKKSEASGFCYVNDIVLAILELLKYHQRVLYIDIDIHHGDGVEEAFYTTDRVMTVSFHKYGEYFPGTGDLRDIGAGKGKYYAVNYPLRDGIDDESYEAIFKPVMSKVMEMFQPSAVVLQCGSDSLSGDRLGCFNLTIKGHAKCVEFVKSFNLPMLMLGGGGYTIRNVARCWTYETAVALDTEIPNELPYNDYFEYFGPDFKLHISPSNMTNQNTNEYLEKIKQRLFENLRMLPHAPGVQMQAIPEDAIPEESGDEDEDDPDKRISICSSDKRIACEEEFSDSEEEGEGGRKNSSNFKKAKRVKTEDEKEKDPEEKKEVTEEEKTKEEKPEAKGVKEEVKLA
HDAC6, sequence (Q9UBN7 whole entry): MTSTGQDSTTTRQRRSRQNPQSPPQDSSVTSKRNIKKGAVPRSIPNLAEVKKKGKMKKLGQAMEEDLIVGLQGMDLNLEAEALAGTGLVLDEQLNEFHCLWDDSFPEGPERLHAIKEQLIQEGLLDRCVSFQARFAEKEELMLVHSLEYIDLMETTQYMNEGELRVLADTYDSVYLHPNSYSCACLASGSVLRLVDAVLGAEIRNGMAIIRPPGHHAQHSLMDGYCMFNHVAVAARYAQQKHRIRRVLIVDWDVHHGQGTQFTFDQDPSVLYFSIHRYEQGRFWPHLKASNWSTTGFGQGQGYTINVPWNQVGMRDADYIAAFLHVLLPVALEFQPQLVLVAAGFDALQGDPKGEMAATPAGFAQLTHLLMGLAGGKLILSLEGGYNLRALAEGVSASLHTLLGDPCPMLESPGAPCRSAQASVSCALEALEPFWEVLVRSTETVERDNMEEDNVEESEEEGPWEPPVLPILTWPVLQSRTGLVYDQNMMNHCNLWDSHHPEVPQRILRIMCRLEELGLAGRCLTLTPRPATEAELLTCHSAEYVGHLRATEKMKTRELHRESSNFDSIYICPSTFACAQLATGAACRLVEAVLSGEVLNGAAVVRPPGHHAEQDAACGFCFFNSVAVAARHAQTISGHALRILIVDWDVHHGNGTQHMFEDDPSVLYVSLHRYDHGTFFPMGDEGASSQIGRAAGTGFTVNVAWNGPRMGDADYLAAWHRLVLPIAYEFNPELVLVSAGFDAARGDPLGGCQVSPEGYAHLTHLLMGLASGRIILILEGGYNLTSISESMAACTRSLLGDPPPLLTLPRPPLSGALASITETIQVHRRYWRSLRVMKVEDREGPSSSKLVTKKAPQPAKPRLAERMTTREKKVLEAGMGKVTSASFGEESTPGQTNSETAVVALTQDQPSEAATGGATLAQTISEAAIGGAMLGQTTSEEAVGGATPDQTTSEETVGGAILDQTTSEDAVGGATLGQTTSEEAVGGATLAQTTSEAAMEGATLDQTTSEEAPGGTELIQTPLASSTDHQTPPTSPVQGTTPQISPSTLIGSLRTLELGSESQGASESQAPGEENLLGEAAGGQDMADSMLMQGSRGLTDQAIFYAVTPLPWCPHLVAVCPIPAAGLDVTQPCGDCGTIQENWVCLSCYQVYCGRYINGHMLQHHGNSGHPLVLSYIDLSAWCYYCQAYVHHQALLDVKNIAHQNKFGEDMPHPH

Row | IC50 (HDAC1) [nM] | IC50 (HDAC6) [nM] | SMILES
1 | > 30000 | 50 | O=C(NCC(Nc1ncc(-c2nnc(C(F)F)o2)cn1)c1ccc(F)cc1)C(F)(F)F (stereo not drawn) [Example 114, N-(2-((5-(5-(difluoromethyl)-1,3,4-oxadiazol-2-yl)pyrimidin-2-yl)amino)-2-(4-fluorophenyl)ethyl)-2,2,2-trifluoroacetamide]
2 | > 30000 | 42 | Fc1cc(Cl)ccc1C1(Nc2ncc(-c3nnc(C(F)F)o3)cn2)CC1 [Example 66]
3 | > 30000 | 110 | CC(=O)N(CC(Nc1ncc(-c2nnc(C(F)F)o2)cn1)c1ccc(F)cc1)CC(F)(F)F (single isomer, unassigned) [167(+), N-(2-((5-(5-(difluoromethyl)-1,3,4-oxadiazol-2-yl)pyrimidin-2-yl)amino)-2-(4-fluorophenyl)ethyl)-N-(2,2,2-trifluoroethyl)acetamide]
4 | > 30000 | 140 | CC(=O)N1CCC(Nc2ncc(-c3nnc(C(F)F)o3)cn2)(c2ccc(F)cc2)CC1 [Example 26, 1-(4-((5-(5-(difluoromethyl)-1,3,4-oxadiazol-2-yl)pyrimidin-2-yl)amino)-4-(4-fluorophenyl)piperidin-1-yl)ethan-1-one]
5 | > 30000 | 250 | COc1ccc(C2(Nc3ncc(-c4nnc(C(F)(F)F)o4)cn3)CC2)cc1 [Example 42, N-(1-(4-methoxyphenyl)cyclopropyl)-5-(5-(trifluoromethyl)-1,3,4-oxadiazol-2-yl)pyrimidin-2-amine]
6 | > 100000 | 15 | Fc1cccc(C2(Nc3ncc(-c4nnc(C(F)F)o4)cn3)CC2)c1 [Example 57, 5-(5-(difluoromethyl)-1,3,4-oxadiazol-2-yl)-N-(1-(3-fluorophenyl)cyclopropyl)pyrimidin-2-amine]
7 | > 30000 | 76 | O=C(NCC(Nc1ncc(-c2nnc(C(F)F)o2)cn1)c1ccc(F)cc1)c1ccccc1 (stereo not drawn) [Example 79, N-(2-((5-(5-(difluoromethyl)-1,3,4-oxadiazol-2-yl)pyrimidin-2-yl)amino)-2-(4-fluorophenyl)ethyl)benzamide]
8 | > 30000 | 580 | O=S(=O)(C1CC1)N(CC(Nc1ncc(-c2nnc(C(F)F)o2)cn1)c1ccc(OC(F)(F)F)cc1)CC(F)(F)F (stereo not drawn) [160(+), N-(2-((5-(5-(difluoromethyl)-1,3,4-oxadiazol-2-yl)pyrimidin-2-yl)amino)-2-(4-(trifluoromethoxy)phenyl)ethyl)-N-(2,2,2-trifluoroethyl)cyclopropanesulfonamide]
9 | > 30000 | 58 | NCC(Nc1ncc(-c2nnc(C(F)F)o2)cn1)c1ccc(F)cc1 (stereo not drawn) [Example 96, N1-(5-(5-(difluoromethyl)-1,3,4-oxadiazol-2-yl)pyrimidin-2-yl)-1-(4-fluorophenyl)ethane-1,2-diamine]
10 | > 30000 | 43 | CC(O)C(Nc1ncc(-c2nnc(C(F)F)o2)cn1)c1ccc(F)cc1F (stereo not drawn) [Example 93, 1-((5-(5-(difluoromethyl)-1,3,4-oxadiazol-2-yl)pyrimidin-2-yl)amino)-1-(2,4-difluorophenyl)propan-2-ol]
11 | > 30000 | 390 | CC(Nc1ncc(-c2nnc(C(F)(F)F)o2)cn1)c1ccccc1 (stereo not drawn) [Example 2, N-(1-phenylethyl)-5-(5-(trifluoromethyl)-1,3,4-oxadiazol-2-yl)pyrimidin-2-amine]
12 | > 30000 | 250 | CS(=O)(=O)Nc1ccc(C(Nc2ncc(-c3nnc(C(F)F)o3)cn2)c2ccc(F)cc2)cc1 (stereo not drawn) [Example 129, N-(4-(((5-(5-(difluoromethyl)-1,3,4-oxadiazol-2-yl)pyrimidin-2-yl)amino)(4-fluorophenyl)methyl)phenyl)methanesulfonamide]
13 | > 30000 | 83 | CS(=O)(=O)Nc1cccc(CC(Nc2ncc(-c3nnc(C(F)F)o3)cn2)c2ccc(F)cc2)c1 (stereo not drawn) [Example 132, N-(3-(2-((5-(5-(difluoromethyl)-1,3,4-oxadiazol-2-yl)pyrimidin-2-yl)amino)-2-(4-fluorophenyl)ethyl)phenyl)methanesulfonamide]
14 | > 30000 | 47 | CC(=O)NCC(Nc1ncc(-c2nnc(C(F)F)o2)cn1)c1ccc(F)cc1 (racemic) [Example 78, N-(2-((5-(5-(difluoromethyl)-1,3,4-oxadiazol-2-yl)pyrimidin-2-yl)amino)-2-(4-fluorophenyl)ethyl)acetamide]
15 | > 30000 | > 1000 | C[C@H](Nc1ncc(-c2nnc(C(F)F)o2)cn1)c1ccc(F)cc1F [Example 99-S]
16 | > 30000 | 86 | CS(=O)(=O)N(CC(Nc1ncc(-c2nnc(C(F)F)o2)cn1)c1ccc(F)c(F)c1)CC(F)(F)F (single isomer, unassigned) [172(B), N-(2-((5-(5-(difluoromethyl)-1,3,4-oxadiazol-2-yl)pyrimidin-2-yl)amino)-2-(3,4-difluorophenyl)ethyl)-N-(2,2,2-trifluoroethyl)methanesulfonamide]
17 | > 30000 | 21 | Fc1cccc(C2(Nc3ncc(-c4nnc(C(F)F)o4)cn3)CC2)c1Cl [Example 91, N-(1-(2-chloro-3-fluorophenyl)cyclopropyl)-5-(5-(difluoromethyl)-1,3,4-oxadiazol-2-yl)pyrimidin-2-amine]
18 | > 30000 | 230 | Cc1cccc(CNc2ncc(-c3nnc(C(F)(F)F)o3)cn2)n1 [Example 3, N-((6-methylpyridin-2-yl)methyl)-5-(5-(trifluoromethyl)-1,3,4-oxadiazol-2-yl) pyrimidin-2-amine]
19 | > 30000 | > 1000 | CC(Nc1ncc(-c2nnc(C(F)F)o2)cn1)c1c(F)cccc1F (single isomer, unassigned; (-)) [100(−), (−)-5-(5-(difluoromethyl)-1,3,4-oxadiazol-2-yl)-N-(1-(2,6-difluorophenyl)ethyl)pyrimidin-2-amine]
20 | > 30000 | 130 | CS(=O)(=O)NCc1ccc(C2(Nc3ncc(-c4nnc(C(F)F)o4)cn3)CC2)cc1 [Example 69, N-(4-(1-((5-(5-(difluoromethyl)-1,3,4-oxadiazol-2-yl)pyrimidin-2-yl)amino)cyclopropyl)benzyl) methanesulfonamide]
21 | > 30000 | 200 | CCS(=O)(=O)N(CC(Nc1ncc(-c2nnc(C(F)F)o2)cn1)c1ccc(OC(F)F)cc1F)CC(F)(F)F (stereo not drawn) [149(+), N-(2-(4-(difluoromethoxy)-2-fluorophenyl)-2-((5-(5-(difluoromethyl)-1,3,4-oxadiazol-2-yl)pyrimidin-2-yl)amino)ethyl)-N-(2,2,2-trifluoroethyl)ethanesulfonamide]
22 | > 30000 | 59 | FC(F)Oc1ccc(C2(Nc3ncc(-c4nnc(C(F)F)o4)cn3)CC2)cc1 [Example 32, N-(1-(4-(difluoromethoxy)phenyl)cyclopropyl)-5-(5-(difluoromethyl)-1,3,4-oxadiazol-2-yl)pyrimidin-2-amine]
23 | > 30000 | 95 | CC(C)C(Nc1ncc(-c2nnc(C(F)F)o2)cn1)c1ccc(F)cc1 (stereo not drawn) [Example 24, 5-(5-(difluoromethyl)-1,3,4-oxadiazol-2-yl)-N-(1-(4-fluorophenyl)-2-methylpropyl)pyrimidin-2-amine]
24 | > 30000 | 160 | N#Cc1cc(C2(Nc3ncc(-c4nnc(C(F)F)o4)cn3)CC2)ccn1 [Example 83, 4-(1-((5-(5-(difluoromethyl)-1,3,4-oxadiazol-2-yl)pyrimidin-2-yl)amino)cyclopropyl)picolinonitrile]
25 | > 30000 | 16 | CC(C)(Nc1ncc(-c2nnc(C(F)F)o2)cn1)c1c(F)cccc1F [Example 98, 5-(5-(difluoromethyl)-1,3,4-oxadiazol-2-yl)-N-(2-(2,6-difluorophenyl)propan-2-yl)pyrimidin-2-amine]
26 | – | 61 | Fc1ccc(C(COC2CC2)Nc2ncc(-c3nnc(C(F)F)o3)cn2)c(F)c1 (single isomer, unassigned) [Example 134B, N-(2-cyclopropoxy-1-(2,4-difluorophenyl)ethyl)-5-(5-(difluoromethyl)-1,3,4-oxadiazol-2-yl)pyrimidin-2-amine]
